These are literature values, as cited in patent US8647680B2, “Methods and compositions for treatment of lesioned sites of body vessels” (Abbott Cardiovascular Systems Inc., priority 2006, dated 2014).

In data set [1] the test system is macrophage cells. The conditions noted are these: oral administration.

Consider `N=C(N)NCCC[C@H](N)C(=O)O` [L-arginine], for which the “apoptosis of macrophage cells” value in data set [1] is on record as “increased apoptosis of macrophage cells”.
With `[N]=O` [nitric oxide], the solubility in water is 2000 to 3000 µM.
